From ChEMBL document CHEMBL5550198, “Impact of atropisomerism on a non-steroidal glucocorticoid receptor agonist” (RSC Med Chem, 2024) come the findings set out here.

Data set [1] can be described thus: Retention time of the compound by HPLC analysis. The data set is classed as physicochemical.
Data set [2] concerns the target T1, Glucocorticoid receptor (Homo sapiens, UniProt P04150).
T1 sequence (P04150 whole entry): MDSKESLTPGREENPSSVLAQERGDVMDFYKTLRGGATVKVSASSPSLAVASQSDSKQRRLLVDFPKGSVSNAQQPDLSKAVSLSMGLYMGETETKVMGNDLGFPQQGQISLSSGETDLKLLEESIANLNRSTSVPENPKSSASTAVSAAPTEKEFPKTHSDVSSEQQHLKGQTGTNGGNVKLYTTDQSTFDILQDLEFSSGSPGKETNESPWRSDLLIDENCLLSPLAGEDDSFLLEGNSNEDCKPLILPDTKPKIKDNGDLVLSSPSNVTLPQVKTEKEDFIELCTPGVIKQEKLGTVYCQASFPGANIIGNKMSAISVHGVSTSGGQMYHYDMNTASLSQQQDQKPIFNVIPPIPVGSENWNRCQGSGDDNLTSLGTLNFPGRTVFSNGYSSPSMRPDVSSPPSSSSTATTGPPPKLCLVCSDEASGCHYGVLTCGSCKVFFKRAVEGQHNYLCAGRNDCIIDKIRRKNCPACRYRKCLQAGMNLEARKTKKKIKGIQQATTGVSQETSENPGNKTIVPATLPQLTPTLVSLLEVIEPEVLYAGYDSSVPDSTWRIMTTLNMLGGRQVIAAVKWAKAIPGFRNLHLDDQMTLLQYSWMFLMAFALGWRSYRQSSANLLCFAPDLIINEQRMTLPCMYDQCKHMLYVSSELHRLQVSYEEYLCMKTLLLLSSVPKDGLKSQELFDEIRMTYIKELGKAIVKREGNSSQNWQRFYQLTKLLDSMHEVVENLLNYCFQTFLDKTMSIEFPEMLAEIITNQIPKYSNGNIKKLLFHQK
Briefly: Agonist activity at glucocorticoid receptor (unknown origin) incubated for 24 hrs by cell based microplate analysis.

The compound `CCc1cccc(Cl)c1C(=O)N(CC)C[C@@](O)(CNC(=O)c1cnn(-c2ccc(F)cc2)c1N)C(F)(F)F` (stereo in doubt; 14b) had a Retention_time in data set [1] of 2.396 min. In addition, a half-maximal effect in data set [2] (EC50) was put at 0.5 nM. Regarding `CCN(C[C@@](O)(CNC(=O)c1cnn(-c2ccc(F)cc2)c1N)C(F)(F)F)C(=O)c1ccccc1C`, in data set [1], the Retention_time is given as 2.179 min. Same read-out and setting: the same measure for `CCN(C[C@@](O)(CNC(=O)c1cnn(-c2ccc(F)cc2)c1N)C(F)(F)F)C(=O)c1c(C)cccc1C`: 2.349 min. As to `CCN(C[C@@](O)(CNC(=O)c1cnn(-c2ccc(F)cc2)c1N)C(F)(F)F)C(=O)c1c(Cl)cccc1Cl`, in data set [1], the Retention_time stood at 2.337 min. The compound further returned a half-maximal effective concentration (EC50) in data set [2] of 2 nM. In data set [1], `CCc1cccc(Cl)c1C(=O)N(CC)C[C@@](O)(CNC(=O)c1cnn(-c2ccc(F)cc2)c1N)C(F)(F)F` (stereo in doubt; 14a) came in with a Retention_time of 2.39 min. This compound also showed an EC50 in data set [2] of 9 nM. For `CCN(C[C@@](O)(CNC(=O)c1cnn(-c2ccc(F)cc2)c1N)C(F)(F)F)C(=O)c1c(C)cccc1Cl` (stereo in doubt; 10b), the Retention_time in data set [1] is reported as 2.36 min. In data set [2], this compound returned an EC50 of 4 nM. In the case of `CCN(C[C@@](O)(CNC(=O)c1cnn(-c2ccc(F)cc2)c1N)C(F)(F)F)C(=O)c1ccccc1Cl`, the Retention_time in data set [1] stood at 2.238 min.

Compound `CCN(C[C@@](O)(CNC(=O)c1cnn(-c2ccc(F)cc2)c1N)C(F)(F)F)C(=O)c1c(F)cccc1F` had a Retention_time in data set [1] of 2.228 min. This compound returned an EC50 in data set [2] of 5 nM. On to `CCc1cccc(C)c1C(=O)N(CC)C[C@@](O)(CNC(=O)c1cnn(-c2ccc(F)cc2)c1N)C(F)(F)F` (stereo in doubt; 13b), for which the Retention_time in data set [1] is listed as 2.417 min. With `CCN(C[C@](O)(CNC(=O)c1cnn(-c2ccc(F)cc2)c1N)C(F)(F)F)C(=O)c1c(Cl)cccc1Cl`, in data set [1], the Retention_time amounted to 3.06 min. As for `CCN(C[C@@](O)(CNC(=O)c1cnn(-c2ccc(F)cc2)c1N)C(F)(F)F)C(=O)c1c(F)cccc1Cl`, in data set [1], the Retention_time was 2.979 min. The EC50 in data set [2] worked out at 2 nM. Regarding `CCN(C[C@@](O)(CNC(=O)c1cnn(-c2ccc(F)cc2)c1N)C(F)(F)F)C(=O)c1ccccc1F`, the Retention_time in data set [1] came out at 2.249 min. In data set [2], this compound yielded an EC50 of 26 nM. Regarding `CCc1ccccc1C(=O)N(CC)C[C@@](O)(CNC(=O)c1cnn(-c2ccc(F)cc2)c1N)C(F)(F)F`, the Retention_time in data set [1] was determined as 2.353 min. Also, the half-maximal effective concentration (EC50) in data set [2] is 4 nM. `CCN(C[C@@](O)(CNC(=O)c1cnn(-c2ccc(F)cc2)c1N)C(F)(F)F)C(=O)c1c(C)cccc1Cl` (stereo in doubt; 10a) gave a Retention_time in data set [1] of 2.314 min. Moreover, in data set [2], the midpoint of the response, the EC50, lay at 2 nM. Regarding `CCc1cccc(CC)c1C(=O)N(CC)C[C@@](O)(CNC(=O)c1cnn(-c2ccc(F)cc2)c1N)C(F)(F)F`, the Retention_time in data set [1] is 2.544 min. In addition, in data set [2], the 50% effective concentration (EC50) is 122 nM. For `CCN(C[C@@](O)(CNC(=O)c1cnn(-c2ccc(F)cc2)c1N)C(F)(F)F)C(=O)c1ccccc1`, in that order: 2.163 min and 78 nM. The compound `CCc1cccc(C)c1C(=O)N(CC)C[C@@](O)(CNC(=O)c1cnn(-c2ccc(F)cc2)c1N)C(F)(F)F` (stereo in doubt; 13a) yielded a Retention_time in data set [1] of 2.394 min. Regarding `CCN(C[C@@](O)(CNC(=O)c1cnn(-c2ccc(F)cc2)c1N)C(F)(F)F)C(=O)c1c(C)cccc1F`, the Retention_time in data set [1] was 2.279 min.

In general, EC50 refers to the concentration giving half of the maximal effect.
